Test results: ChEMBL document CHEMBL5291721, “A preclinical secondary pharmacology resource illuminates target-adverse drug reaction associations of marketed drugs” (Nat Commun, 2023)

Assays:
[1] = biological target: Sodium-dependent noradrenaline transporter (Homo sapiens, UniProt P23975)
[2] = biological target: T1, Muscarinic acetylcholine receptor M2 (Homo sapiens, UniProt P08172); format: functional, cell-based
T1 sequence (P08172 whole entry): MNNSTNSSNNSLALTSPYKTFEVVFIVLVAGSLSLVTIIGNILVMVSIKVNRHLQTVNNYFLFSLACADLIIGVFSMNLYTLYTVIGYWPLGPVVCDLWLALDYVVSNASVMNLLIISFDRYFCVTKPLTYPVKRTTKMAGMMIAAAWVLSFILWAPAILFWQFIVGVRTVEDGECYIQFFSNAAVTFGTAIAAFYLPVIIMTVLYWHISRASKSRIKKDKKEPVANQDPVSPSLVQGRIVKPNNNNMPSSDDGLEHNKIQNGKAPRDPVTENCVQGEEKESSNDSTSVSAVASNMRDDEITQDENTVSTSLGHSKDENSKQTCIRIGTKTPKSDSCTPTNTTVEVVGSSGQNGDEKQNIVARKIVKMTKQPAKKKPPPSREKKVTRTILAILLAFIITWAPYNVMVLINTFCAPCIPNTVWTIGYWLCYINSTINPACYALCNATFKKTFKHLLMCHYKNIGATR

Motilin receptor = Motilin receptor (Homo sapiens, UniProt O43193)
[3] = biological target: T2, 5-hydroxytryptamine receptor 2B (Homo sapiens, UniProt P41595); format: functional, cell-based
[4] = biological target: T2, 5-hydroxytryptamine receptor 2B; format: functional, cell-based; remark: listed apart in the source
Progesterone receptor = biological target: T3, Progesterone receptor (Homo sapiens, UniProt P06401); format: functional
T3 sequence (P06401 whole entry): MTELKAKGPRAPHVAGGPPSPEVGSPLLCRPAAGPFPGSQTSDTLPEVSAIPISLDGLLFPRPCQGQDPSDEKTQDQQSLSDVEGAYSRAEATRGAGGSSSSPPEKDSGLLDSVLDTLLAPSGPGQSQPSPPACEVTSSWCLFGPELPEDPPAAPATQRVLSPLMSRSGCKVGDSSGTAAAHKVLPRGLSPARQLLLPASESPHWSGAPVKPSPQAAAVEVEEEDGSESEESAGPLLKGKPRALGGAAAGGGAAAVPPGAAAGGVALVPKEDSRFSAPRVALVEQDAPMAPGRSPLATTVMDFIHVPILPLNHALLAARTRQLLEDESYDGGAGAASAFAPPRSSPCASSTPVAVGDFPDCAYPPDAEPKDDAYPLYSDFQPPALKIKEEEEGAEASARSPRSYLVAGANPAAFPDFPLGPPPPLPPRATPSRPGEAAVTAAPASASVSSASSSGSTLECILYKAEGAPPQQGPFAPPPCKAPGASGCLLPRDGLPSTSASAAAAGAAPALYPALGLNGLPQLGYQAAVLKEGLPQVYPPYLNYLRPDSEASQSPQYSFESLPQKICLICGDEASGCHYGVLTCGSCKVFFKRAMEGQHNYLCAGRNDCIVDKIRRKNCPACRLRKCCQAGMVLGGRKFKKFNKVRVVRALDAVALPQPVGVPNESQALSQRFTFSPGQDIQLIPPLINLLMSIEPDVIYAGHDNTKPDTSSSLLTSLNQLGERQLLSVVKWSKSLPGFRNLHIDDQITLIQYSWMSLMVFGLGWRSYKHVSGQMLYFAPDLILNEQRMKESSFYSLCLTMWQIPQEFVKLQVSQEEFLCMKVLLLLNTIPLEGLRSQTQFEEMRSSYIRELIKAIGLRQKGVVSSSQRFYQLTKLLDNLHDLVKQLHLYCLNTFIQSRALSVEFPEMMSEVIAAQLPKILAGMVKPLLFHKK

[5] = biological target: Voltage-dependent L-type calcium channel subunit alpha-1C (Rattus norvegicus, UniProt P22002); format: functional
Adenosine receptor A2a = Adenosine receptor A2a (Homo sapiens, UniProt P29274)
[6] = biological target: T4, Alpha-2C adrenergic receptor (Homo sapiens, UniProt P18825); format: functional
T4 sequence (P18825 whole entry): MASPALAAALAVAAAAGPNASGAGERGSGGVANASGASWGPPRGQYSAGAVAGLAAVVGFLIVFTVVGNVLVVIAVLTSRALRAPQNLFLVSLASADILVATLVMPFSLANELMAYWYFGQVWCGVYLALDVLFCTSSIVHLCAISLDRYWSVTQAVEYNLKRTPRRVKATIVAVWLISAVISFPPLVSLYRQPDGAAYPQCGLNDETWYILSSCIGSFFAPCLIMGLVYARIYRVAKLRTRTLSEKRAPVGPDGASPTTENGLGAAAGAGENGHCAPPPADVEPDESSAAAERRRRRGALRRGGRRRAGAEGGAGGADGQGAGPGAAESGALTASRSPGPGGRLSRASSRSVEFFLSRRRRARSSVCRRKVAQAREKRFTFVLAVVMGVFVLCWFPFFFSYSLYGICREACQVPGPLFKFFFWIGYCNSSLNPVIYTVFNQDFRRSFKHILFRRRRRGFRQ

[7] = biological target: Kappa-type opioid receptor (Homo sapiens, UniProt P41145)
[8] = biological target: Growth hormone secretagogue receptor type 1 (Homo sapiens, UniProt Q92847)
Histamine H3 receptor = Histamine H3 receptor (Homo sapiens, UniProt Q9Y5N1)
Cannabinoid receptor 1 = Cannabinoid receptor 1 (Homo sapiens, UniProt P21554); format: functional, cell-based
Endothelin-1 receptor = biological target: T5, Endothelin-1 receptor (Homo sapiens, UniProt P25101)
T5 sequence (P25101 whole entry): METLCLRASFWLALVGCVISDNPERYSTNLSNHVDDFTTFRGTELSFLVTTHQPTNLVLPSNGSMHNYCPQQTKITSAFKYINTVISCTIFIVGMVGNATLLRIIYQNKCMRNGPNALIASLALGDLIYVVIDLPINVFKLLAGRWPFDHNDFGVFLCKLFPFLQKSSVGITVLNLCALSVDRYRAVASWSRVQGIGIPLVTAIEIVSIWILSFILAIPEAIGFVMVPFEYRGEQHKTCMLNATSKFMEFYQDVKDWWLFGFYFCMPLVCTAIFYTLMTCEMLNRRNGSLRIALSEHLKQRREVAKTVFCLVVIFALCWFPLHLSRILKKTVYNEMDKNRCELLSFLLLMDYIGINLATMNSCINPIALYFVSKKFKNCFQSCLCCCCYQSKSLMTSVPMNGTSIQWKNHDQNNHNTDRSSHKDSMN

Measured: AC50
Further: assay procedure not described here.

Voltage-dependent L-type calcium channel subunit alpha-1C, sequence (P22002 whole entry): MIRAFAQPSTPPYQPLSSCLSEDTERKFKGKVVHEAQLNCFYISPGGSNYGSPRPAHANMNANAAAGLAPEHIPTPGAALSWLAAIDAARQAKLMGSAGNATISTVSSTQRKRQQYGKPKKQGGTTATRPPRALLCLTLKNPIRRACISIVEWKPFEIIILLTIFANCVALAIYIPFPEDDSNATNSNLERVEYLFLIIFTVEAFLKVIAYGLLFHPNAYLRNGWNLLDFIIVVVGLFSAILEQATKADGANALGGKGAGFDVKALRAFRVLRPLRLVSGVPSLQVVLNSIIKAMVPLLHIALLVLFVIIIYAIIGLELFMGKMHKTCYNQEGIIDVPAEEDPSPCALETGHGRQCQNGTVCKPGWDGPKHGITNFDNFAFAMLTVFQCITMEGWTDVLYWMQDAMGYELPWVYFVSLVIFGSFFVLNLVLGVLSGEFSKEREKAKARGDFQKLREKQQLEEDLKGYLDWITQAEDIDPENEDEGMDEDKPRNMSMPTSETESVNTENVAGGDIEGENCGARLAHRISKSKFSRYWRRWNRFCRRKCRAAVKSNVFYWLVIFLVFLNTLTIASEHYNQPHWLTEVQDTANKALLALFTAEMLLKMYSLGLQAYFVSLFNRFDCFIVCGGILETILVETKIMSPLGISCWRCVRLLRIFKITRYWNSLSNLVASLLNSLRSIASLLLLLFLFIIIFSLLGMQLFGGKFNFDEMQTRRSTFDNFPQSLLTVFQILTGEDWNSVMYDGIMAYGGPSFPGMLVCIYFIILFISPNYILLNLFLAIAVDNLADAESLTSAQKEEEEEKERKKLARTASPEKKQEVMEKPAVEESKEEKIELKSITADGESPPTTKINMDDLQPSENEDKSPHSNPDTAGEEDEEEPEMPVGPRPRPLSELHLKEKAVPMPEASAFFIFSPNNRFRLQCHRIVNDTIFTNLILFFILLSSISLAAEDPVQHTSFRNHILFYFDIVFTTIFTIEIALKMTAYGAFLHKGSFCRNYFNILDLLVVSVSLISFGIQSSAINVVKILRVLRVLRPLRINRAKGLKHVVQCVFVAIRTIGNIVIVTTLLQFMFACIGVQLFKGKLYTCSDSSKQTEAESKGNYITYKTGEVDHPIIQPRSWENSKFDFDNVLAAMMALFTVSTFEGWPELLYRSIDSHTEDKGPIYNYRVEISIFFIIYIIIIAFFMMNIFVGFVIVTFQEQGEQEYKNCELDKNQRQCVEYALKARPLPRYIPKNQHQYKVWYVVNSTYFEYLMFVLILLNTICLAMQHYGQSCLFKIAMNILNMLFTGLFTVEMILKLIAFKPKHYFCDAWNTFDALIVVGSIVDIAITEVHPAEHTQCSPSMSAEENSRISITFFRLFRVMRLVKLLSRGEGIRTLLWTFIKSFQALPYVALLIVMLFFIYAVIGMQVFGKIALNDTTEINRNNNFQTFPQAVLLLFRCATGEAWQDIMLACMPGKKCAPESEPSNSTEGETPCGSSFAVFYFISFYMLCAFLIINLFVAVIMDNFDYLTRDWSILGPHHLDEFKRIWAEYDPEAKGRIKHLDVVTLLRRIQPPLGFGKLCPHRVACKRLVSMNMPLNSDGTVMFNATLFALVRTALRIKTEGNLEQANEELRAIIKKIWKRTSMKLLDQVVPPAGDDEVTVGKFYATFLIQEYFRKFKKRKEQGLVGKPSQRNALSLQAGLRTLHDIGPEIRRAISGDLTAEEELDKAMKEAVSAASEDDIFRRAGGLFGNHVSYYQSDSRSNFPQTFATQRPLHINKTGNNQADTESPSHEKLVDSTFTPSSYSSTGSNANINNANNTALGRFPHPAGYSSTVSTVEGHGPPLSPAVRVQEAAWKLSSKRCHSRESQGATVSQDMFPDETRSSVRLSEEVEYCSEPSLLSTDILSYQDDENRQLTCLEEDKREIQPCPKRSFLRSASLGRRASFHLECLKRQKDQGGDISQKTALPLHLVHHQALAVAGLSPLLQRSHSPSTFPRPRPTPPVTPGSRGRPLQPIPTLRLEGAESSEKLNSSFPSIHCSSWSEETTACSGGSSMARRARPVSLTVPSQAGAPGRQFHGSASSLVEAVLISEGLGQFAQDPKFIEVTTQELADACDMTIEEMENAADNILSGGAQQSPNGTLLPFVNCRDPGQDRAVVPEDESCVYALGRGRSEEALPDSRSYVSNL
Cannabinoid receptor 1, sequence (P21554 whole entry): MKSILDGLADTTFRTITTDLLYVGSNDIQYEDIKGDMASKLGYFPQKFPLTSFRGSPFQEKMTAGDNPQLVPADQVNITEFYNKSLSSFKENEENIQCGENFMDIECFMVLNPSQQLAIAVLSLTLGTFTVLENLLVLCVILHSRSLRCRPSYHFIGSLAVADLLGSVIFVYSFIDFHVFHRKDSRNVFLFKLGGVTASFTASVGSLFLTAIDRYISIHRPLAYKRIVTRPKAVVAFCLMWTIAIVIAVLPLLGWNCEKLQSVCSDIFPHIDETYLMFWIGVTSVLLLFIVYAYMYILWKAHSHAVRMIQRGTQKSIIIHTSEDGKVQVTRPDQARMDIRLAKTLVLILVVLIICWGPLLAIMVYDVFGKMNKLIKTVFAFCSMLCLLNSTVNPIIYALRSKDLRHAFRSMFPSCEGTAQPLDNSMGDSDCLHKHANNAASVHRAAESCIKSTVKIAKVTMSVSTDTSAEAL
T2 sequence (P41595 whole entry): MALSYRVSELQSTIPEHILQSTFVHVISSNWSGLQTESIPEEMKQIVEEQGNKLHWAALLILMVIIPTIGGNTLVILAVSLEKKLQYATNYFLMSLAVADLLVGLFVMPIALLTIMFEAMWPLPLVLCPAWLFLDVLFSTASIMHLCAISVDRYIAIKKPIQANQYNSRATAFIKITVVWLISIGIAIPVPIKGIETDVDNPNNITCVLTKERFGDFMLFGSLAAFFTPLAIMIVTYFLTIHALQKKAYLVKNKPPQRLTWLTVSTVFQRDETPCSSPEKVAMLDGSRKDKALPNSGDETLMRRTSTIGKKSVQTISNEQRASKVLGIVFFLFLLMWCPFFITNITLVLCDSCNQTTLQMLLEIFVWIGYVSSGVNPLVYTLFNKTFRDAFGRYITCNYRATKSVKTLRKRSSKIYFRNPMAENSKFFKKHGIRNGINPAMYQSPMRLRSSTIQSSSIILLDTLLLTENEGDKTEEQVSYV
Adenosine receptor A2a, sequence (P29274 whole entry): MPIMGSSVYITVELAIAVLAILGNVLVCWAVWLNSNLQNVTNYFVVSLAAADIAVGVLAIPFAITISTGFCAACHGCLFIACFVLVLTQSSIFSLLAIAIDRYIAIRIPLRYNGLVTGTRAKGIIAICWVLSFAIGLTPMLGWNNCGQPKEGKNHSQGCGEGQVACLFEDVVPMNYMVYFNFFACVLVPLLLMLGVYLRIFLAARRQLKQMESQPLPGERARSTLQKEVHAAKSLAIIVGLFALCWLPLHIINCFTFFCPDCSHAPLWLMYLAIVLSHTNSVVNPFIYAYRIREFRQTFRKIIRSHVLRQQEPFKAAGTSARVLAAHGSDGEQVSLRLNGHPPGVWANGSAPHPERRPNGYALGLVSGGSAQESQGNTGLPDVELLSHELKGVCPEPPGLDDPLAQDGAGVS
Motilin receptor, sequence (O43193 whole entry): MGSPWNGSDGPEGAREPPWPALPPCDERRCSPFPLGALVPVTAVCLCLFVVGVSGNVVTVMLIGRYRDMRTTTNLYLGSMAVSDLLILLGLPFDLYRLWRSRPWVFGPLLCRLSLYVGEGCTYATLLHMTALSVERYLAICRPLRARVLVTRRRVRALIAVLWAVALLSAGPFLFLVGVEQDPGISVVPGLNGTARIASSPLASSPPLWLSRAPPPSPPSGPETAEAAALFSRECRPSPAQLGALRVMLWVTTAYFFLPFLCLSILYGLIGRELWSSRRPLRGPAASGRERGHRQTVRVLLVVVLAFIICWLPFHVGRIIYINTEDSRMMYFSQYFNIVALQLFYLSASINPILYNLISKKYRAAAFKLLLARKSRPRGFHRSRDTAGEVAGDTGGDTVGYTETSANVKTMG
Histamine H3 receptor, sequence (Q9Y5N1 whole entry): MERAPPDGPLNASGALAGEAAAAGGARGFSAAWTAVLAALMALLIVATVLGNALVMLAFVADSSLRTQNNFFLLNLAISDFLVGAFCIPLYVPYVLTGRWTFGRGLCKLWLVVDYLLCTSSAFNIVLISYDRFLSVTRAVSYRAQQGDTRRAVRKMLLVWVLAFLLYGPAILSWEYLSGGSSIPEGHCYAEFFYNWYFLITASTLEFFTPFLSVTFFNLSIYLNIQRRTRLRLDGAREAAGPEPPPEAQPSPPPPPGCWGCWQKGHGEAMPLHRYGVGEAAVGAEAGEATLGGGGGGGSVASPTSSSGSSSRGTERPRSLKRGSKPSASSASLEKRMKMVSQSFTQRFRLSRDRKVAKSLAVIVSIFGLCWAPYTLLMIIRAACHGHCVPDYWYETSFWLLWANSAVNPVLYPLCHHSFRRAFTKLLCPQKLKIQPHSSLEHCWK
Sodium-dependent noradrenaline transporter, sequence (P23975 whole entry): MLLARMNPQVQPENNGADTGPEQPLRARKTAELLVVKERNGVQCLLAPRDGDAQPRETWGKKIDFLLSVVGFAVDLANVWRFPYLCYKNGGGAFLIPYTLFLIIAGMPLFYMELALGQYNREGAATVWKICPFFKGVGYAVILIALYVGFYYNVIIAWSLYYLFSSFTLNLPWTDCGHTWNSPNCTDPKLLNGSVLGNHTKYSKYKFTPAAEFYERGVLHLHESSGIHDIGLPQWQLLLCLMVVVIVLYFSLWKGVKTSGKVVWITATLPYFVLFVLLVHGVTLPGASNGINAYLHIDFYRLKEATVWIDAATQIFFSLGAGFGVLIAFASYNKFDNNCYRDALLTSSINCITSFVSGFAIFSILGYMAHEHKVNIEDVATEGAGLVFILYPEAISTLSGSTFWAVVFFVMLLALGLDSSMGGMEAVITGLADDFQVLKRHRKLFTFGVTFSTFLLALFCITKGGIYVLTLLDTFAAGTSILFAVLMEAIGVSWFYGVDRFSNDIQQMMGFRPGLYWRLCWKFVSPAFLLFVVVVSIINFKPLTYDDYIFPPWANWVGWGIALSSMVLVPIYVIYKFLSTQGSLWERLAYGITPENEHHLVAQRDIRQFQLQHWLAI

COC(=O)[C@H]1[C@H]2C[C@@H]3c4[nH]c5ccccc5c4CCN3C[C@H]2C[C@@H](OC(=O)c2cc(OC)c(OC)c(OC)c2)[C@@H]1OC [DESERPIDINE]
13.7 µM: [7]
> 30 µM: Motilin receptor | Progesterone receptor | Adenosine receptor A2a
12 µM: [6]
24.6 µM: [8]
> 10 µM: [1] | [2] | [3] | [4] | [5]

CC(=O)OCC1=C(C(=O)O)N2C(=O)[C@@H](NC(=O)CSc3ccncc3)[C@H]2SC1 [CEPHAPIRIN]
> 10 µM: [1] | [2] | Motilin receptor | [3] | [4] | [5] | Adenosine receptor A2a | [6] | [7] | [8]
> 30 µM: Progesterone receptor

CCC1(C)CC(=O)NC1=O (configuration not stated) [ETHOSUXIMIDE]
> 10 µM: [1] | [2] | Motilin receptor | [3] | [4] | Progesterone receptor | [5] | Adenosine receptor A2a | [6] | [7] | [8]

Cc1nnc2n1-c1ccc(Cl)cc1C(c1ccccc1)=NC2 [ALPRAZOLAM]
7.48 µM: [7]
> 30 µM: Cannabinoid receptor 1 | Adenosine receptor A2a | Endothelin-1 receptor | [8]
> 10 µM: [1] | [2] | Motilin receptor | Histamine H3 receptor | [3] | [4] | [5] | [6]

Oc1cc(O)c2c(c1)O[C@H](c1ccc(O)c(O)c1)[C@@H](O)C2 [CIANIDANOL]
> 30 µM: [1] | Cannabinoid receptor 1 | Adenosine receptor A2a | Endothelin-1 receptor | [8]
> 10 µM: [2] | Motilin receptor | Histamine H3 receptor | [3] | [4] | [5] | [6] | [7]

CC(=O)OCC(=O)[C@@]1(O)CC[C@H]2[C@@H]3CCC4=CC(=O)CC[C@]4(C)[C@@]3(F)[C@@H](O)C[C@@]21C [FLUDROCORTISONE ACETATE]
> 30 µM: [1] | [2] | Motilin receptor | Histamine H3 receptor | [3] | Cannabinoid receptor 1 | [4] | [5] | Adenosine receptor A2a | Endothelin-1 receptor | [6] | [7] | [8]

CN(C)CCOC(=O)C(c1ccccc1)C1(O)CCCC1 (configuration not stated) [CYCLOPENTOLATE]
0.29 µM: [2]
> 10 µM: Motilin receptor | [3] | [4] | Progesterone receptor | [5] | Adenosine receptor A2a | [7] | [8]
> 30 µM: [1] | [6]

CN1C2CCCC1CC(NC(=O)c1nn(C)c3ccccc13)C2 (configuration not stated) [GRANISETRON]
> 10 µM: [1] | [2] | Motilin receptor | Histamine H3 receptor | [3] | [4] | [5] | [6] | [7]
> 30 µM: Cannabinoid receptor 1 | Adenosine receptor A2a | Endothelin-1 receptor | [8]

CCOC(=O)C1=C(C)NC(C)=C(C(=O)OC)C1c1cccc(Cl)c1Cl (configuration not stated) [FELODIPINE]
0.0204 µM: [5]
> 10 µM: [1] | [2] | Motilin receptor | Histamine H3 receptor | [3] | [4] | [6]
8.88 µM: [7]
> 30 µM: Cannabinoid receptor 1 | Adenosine receptor A2a | Endothelin-1 receptor | [8]

CC(C)(N)Cc1ccccc1 [PHENTERMINE]
> 30 µM: Cannabinoid receptor 1 | Adenosine receptor A2a | Endothelin-1 receptor | [8]
> 10 µM: [2] | Motilin receptor | Histamine H3 receptor | [3] | [4] | [5] | [6] | [7]
5.73 µM: [1]

Cc1ccc(-c2ncc(Cl)cc2-c2ccc(S(C)(=O)=O)cc2)cn1 [ETORICOXIB]
> 10 µM: [1] | [2] | Motilin receptor | Histamine H3 receptor | [3] | [4] | [5] | Adenosine receptor A2a | [6] | [7] | [8]
> 30 µM: Cannabinoid receptor 1 | Endothelin-1 receptor

O=C1CN=C(c2ccccc2Cl)c2cc([N+](=O)[O-])ccc2N1 [CLONAZEPAM]
> 30 µM: Cannabinoid receptor 1 | Adenosine receptor A2a | Endothelin-1 receptor | [8]
> 10 µM: [1] | [2] | Motilin receptor | Histamine H3 receptor | [3] | [4] | [5] | [6] | [7]

Cc1cccc(Nc2ccncc2S(=O)(=O)NC(=O)NC(C)C)c1 [TORSEMIDE]
> 10 µM: [1] | [2] | [3] | [4] | Progesterone receptor | [5] | [6] | [7]
> 30 µM: Motilin receptor | Adenosine receptor A2a | [8]

CN1C(=O)CN=C(c2ccccc2F)c2cc([N+](=O)[O-])ccc21 [FLUNITRAZEPAM]
> 30 µM: Cannabinoid receptor 1 | Adenosine receptor A2a | Endothelin-1 receptor
> 10 µM: [1] | [2] | Motilin receptor | Histamine H3 receptor | [3] | [4] | [5] | [6]
6.39 µM: [7]
29.1 µM: [8]
